Measured values published in patent publication US20260070945A1, “MACROCYCLIC IMMUNOMODULATORS” (Bristol-Myers Squibb Company, priority 2022, published 2026).
Where a SMILES comes first, the peptide text is derived from it. Bridges are numbered along the chain shown (N, C = ends). [ ]: non-standard residue; d: D form. The star is where a group is joined. ξ: configuration not given here. Phe(3-CF3) = N[C@@H](Cc1cccc(C(F)(F)F)c1)C(=O)O; Phe(4-CF3) = N[C@@H](Cc1ccc(C(F)(F)F)cc1)C(=O)O; Ala(morpholin-4-yl) = N[C@@H](CN1CCOCC1)C(=O)O; Phe(4-COOH) = N[C@@H](Cc1ccc(C(=O)O)cc1)C(=O)O; Bip = N[C@@H](Cc1ccc(-c2ccccc2)cc1)C(=O)O; NH(CH2)14COOH = O=C(O)CCCCCCCCCCCCCCN*; Phe(3-Me) = Cc1cccc(C[C@H](N)C(=O)O)c1; NH(CH2)12COOH = O=C(O)CCCCCCCCCCCCN*; Val(3-OH) = CC(C)(O)[C@H](N)C(=O)O; 4Pal = N[C@@H](Cc1ccncc1)C(=O)O; Cha = N[C@@H](CC1CCCCC1)C(=O)O; Cit = NC(=O)NCCC[C@H](N)C(=O)O; Ile(3ξ) = CCC(C)[C@H](N)C(=O)O; Thr(3ξ) = CC(O)[C@H](N)C(=O)O; Carboxymethyl = O=C(O)C*; NMeA = CN[C@@H](C)C(=O)O; Orn = NCCC[C@H](N)C(=O)O; Aun = NCCCCCCCCCCC(=O)O; Dab = NCC[C@H](N)C(=O)O; AEEA = NCCOCCOCC(=O)O

molecular target: T1, PD-1/PD-L1 interaction (PE-labeled human PD-L1-Ig binding to Jurkat cell line over-expressing human PD-1) (Homo sapiens, UniProt Q15116); test: Jurkat-PD-1 Cell Binding High-Content Screening Assay (CBA); conditions: Jurkat-hPD-1 cells, PE-labeled PD-L1-Ig 20 nM final; read-out: Jurkat HPD1 PDL1 IC50
T1 construct: expressed in transfected cells; host or cells: Jurkat
T1 sequence (Q15116 25-288): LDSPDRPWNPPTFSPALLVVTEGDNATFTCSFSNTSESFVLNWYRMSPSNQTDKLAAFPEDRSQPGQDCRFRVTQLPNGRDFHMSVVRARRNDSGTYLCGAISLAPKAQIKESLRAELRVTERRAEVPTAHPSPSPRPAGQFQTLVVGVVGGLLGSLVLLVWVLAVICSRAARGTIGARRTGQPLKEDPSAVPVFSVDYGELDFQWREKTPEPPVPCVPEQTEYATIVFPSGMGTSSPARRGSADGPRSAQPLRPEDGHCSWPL
Method in brief: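 Compound is added first to the PD-1-expressing Jurkat cells and held 2 h at 37 °C in serum-containing DMEM. The fluorescent PD-L1 fusion follows at 20 nM final for 1 h. Fixed, Hoechst-stained cells are then imaged for bound label.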

In order of falling IC50:
1. CCC(C)[C@@H]1NC(=O)[C@H](CC(C)C)NC(=O)[C@H](CCN)NC(=O)[C@@H](CC(C)C)NC(=O)[C@H](C)N(C)C(=O)[C@H](C(C)CC)NC(=O)[C@H](Cc2ccc(-c3ccccc3)cc2)NC(=O)[C@H](C(C)CC)NC(=O)[C@H](Cc2c[nH]c3ccccc23)NC(=O)[C@H](CC(=O)O)NC(=O)[C@H](Cc2ccc(OCC(=O)O)cc2)NC(=O)[C@H](C(C)O)NC(=O)CSC[C@@H](C(=O)N[C@H](CC(N)=O)C(=O)NCCOCCOCC(=O)N[C@@H](CCCN)C(=O)NCCCCCCCCCCC(=O)O)NC(=O)[C@H](CO)NC1=O (stereo partly drawn) [Example 2082] ({CH2CO}-[Thr(3ξ)]Y(Carboxymethyl)DW[Ile(3ξ)][Bip][Ile(3ξ)][NMeA][dL][Dab]L[Ile(3ξ)]SC[dN][AEEA][Orn][Aun]-OH; thioether N-14)  169 nM
2. CC(=O)NCCCC[C@@H]1NC(=O)[C@H](Cc2ccc(-c3ccccc3)cc2)NC(=O)[C@H](Cc2ccc(O)cc2)NC(=O)[C@H](Cc2cccc(C)c2)NC(=O)[C@H](CC(=O)O)NC(=O)[C@H](Cc2ccc(OCC(=O)O)cc2)NC(=O)[C@H](CCN)NC(=O)CSC[C@@H](C(=O)NCCOCCOCC(=O)NCCCCCCCCCCC(=O)O)NC(=O)[C@H](C(C)O)NC(=O)[C@H](C(C)C)NC(=O)[C@H](CC2CCCCC2)NC(=O)[C@H](CCN)NC(=O)[C@@H](CC(C)C)NC(=O)[C@H](C)N(C)C1=O (stereo partly drawn) [Example 2419] ({CH2CO}-[Dab]Y(Carboxymethyl)D[Phe(3-Me)]Y[Bip]K(Ac)[NMeA][dL][Dab][Cha]V[Thr(3ξ)]C[AEEA][Aun]-OH; thioether N-14)  52.4 nM
3. Cc1cccc(C[C@@H]2NC(=O)[C@H](CC(=O)O)NC(=O)[C@H](Cc3ccncc3)NC(=O)[C@H](Cc3ccc(OCC(=O)O)cc3)NC(=O)CSC[C@@H](C(=O)N[C@@H](CCCN)C(=O)NCCOCCOCC(=O)NCCCCCCCCCCC(=O)O)NC(=O)[C@H]([C@@H](C)O)NC(=O)[C@H](C(C)C)NC(=O)[C@H](CC3CCCCC3)NC(=O)[C@H](CC(N)=O)NC(=O)[C@@H](CC(C)C)NC(=O)[C@H](C)N(C)C(=O)[C@H](Cc3ccc(OCC(=O)O)cc3)NC(=O)[C@H](Cc3ccc(-c4ccccc4)cc3)NC(=O)[C@H](Cc3ccc(OCC(=O)O)cc3)NC2=O)c1 [Example 1358] ({CH2CO}-Y(Carboxymethyl)[4Pal]D[Phe(3-Me)]Y(Carboxymethyl)[Bip]Y(Carboxymethyl)[NMeA][dL]N[Cha]VTC[Orn][AEEA][Aun]-OH; thioether N-14)  45.6 nM
4. Cc1cccc(C[C@@H]2NC(=O)[C@H](CC(=O)O)NC(=O)[C@H](Cc3ccc(OCC(=O)O)cc3)NC(=O)[C@H]([C@@H](C)O)NC(=O)CSC[C@@H](C(=O)N[C@@H](CCCN)C(=O)NCCOCCOCC(=O)NCCCCCCCCCCC(=O)O)NC(=O)[C@H](CO)NC(=O)[C@H](C(C)C)NC(=O)[C@H](CC3CCCCC3)NC(=O)[C@H](CCN)NC(=O)[C@@H](CC(C)C)NC(=O)[C@H](C)N(C)C(=O)[C@H](Cc3ccc(OCC(=O)O)cc3)NC(=O)[C@H](Cc3ccc(-c4ccccc4)cc3)NC(=O)[C@H](Cc3ccc(OCC(=O)O)cc3)NC2=O)c1 [Example 1372] ({CH2CO}-TY(Carboxymethyl)D[Phe(3-Me)]Y(Carboxymethyl)[Bip]Y(Carboxymethyl)[NMeA][dL][Dab][Cha]VSC[Orn][AEEA][Aun]-OH; thioether N-14)  28 nM
5. CC(C)C[C@H]1NC(=O)[C@H](C)N(C)C(=O)[C@H](CCC(N)=O)NC(=O)[C@H](Cc2ccc(-c3ccccc3)cc2)NC(=O)[C@H](Cc2ccc(C(=O)O)cc2)NC(=O)[C@H](Cc2cccc(C(F)(F)F)c2)NC(=O)[C@H](CC(=O)O)NC(=O)[C@H](Cc2ccc(OCC(=O)O)cc2)NC(=O)[C@H](CN2CCOCC2)NC(=O)CSC[C@@H](C(=O)N[C@@H](CCN)C(=O)NCCCCCCCCCCCCC(=O)O)NC(=O)[C@H](Cc2c[nH]cn2)NC(=O)[C@H](C(C)(C)O)NC(=O)[C@H](CC2CCCCC2)NC(=O)[C@H](CCN)NC1=O [Example 1188] ({CH2CO}-[Ala(morpholin-4-yl)]Y(Carboxymethyl)D[Phe(3-CF3)][Phe(4-COOH)][Bip]Q[NMeA][dL][Dab][Cha][Val(3-OH)]HC[Dab]-{NH(CH2)12COOH}; thioether N-14)  20.5 nM
6. Cc1cccc(C[C@@H]2NC(=O)[C@H](CC(=O)O)NC(=O)[C@H](Cc3ccc(OCC(=O)O)cc3)NC(=O)[C@H](Cc3ccncc3)NC(=O)CSC[C@@H](C(=O)N[C@@H](CCN)C(=O)NCCCCCCCCCCC(=O)O)NC(=O)[C@H](CO)NC(=O)[C@H](CO)NC(=O)[C@H](CC3CCCCC3)NC(=O)[C@H](CCN)NC(=O)[C@@H](CC(C)C)NC(=O)[C@H](C)N(C)C(=O)[C@H](Cc3ccc(OCC(=O)O)cc3)NC(=O)[C@H](Cc3ccc(-c4ccccc4)cc3)NC(=O)[C@H](Cc3ccc(OCC(=O)O)cc3)NC2=O)c1 [Example 2454] ({CH2CO}-[4Pal]Y(Carboxymethyl)D[Phe(3-Me)]Y(Carboxymethyl)[Bip]Y(Carboxymethyl)[NMeA][dL][Dab][Cha]SSC[Dab][Aun]-OH; thioether N-14)  11.1 nM

same assay, conditions: PE-labeled PD-L1-Ig 20 nM final, Jurkat-hPD-1 cells; read-out: Jurkat HPD1 PDL1 IC50

In order of rising IC50:
1. CC(=O)NCCCC[C@@H]1NC(=O)[C@H](C(C)(C)O)NC(=O)[C@H](CC2CCCCC2)NC(=O)[C@H](CCN)NC(=O)[C@@H](CC(C)C)NC(=O)[C@H](C)N(C)C(=O)[C@H](CCC(N)=O)NC(=O)[C@H](Cc2ccc(-c3ccccc3)cc2)NC(=O)[C@H](Cc2ccc(C(=O)O)cc2)NC(=O)[C@H](Cc2cccc(C)c2)NC(=O)[C@H](CC(=O)O)NC(=O)[C@H](Cc2ccc(OCC(=O)O)cc2)NC(=O)[C@H](Cc2ccc(C(F)(F)F)cc2)NC(=O)CSC[C@@H](C(=O)N[C@@H](CCN)C(=O)NCCOCCOCC(=O)NCCCCCCCCCCC(=O)O)NC1=O [Example 2596] ({CH2CO}-[Phe(4-CF3)]Y(Carboxymethyl)D[Phe(3-Me)][Phe(4-COOH)][Bip]Q[NMeA][dL][Dab][Cha][Val(3-OH)]K(Ac)C[Dab][AEEA][Aun]-OH; thioether N-14)  2.7 nM
2. CC(=O)NCCCC[C@@H]1NC(=O)[C@H](C(C)(C)O)NC(=O)[C@H](CC2CCCCC2)NC(=O)[C@H](CCN)NC(=O)[C@@H](CC(C)C)NC(=O)[C@H](C)N(C)C(=O)[C@H](CCC(N)=O)NC(=O)[C@H](Cc2ccc(-c3ccccc3)cc2)NC(=O)[C@H](Cc2ccc(C(=O)O)cc2)NC(=O)[C@H](Cc2cccc(C(F)(F)F)c2)NC(=O)[C@H](CC(=O)O)NC(=O)[C@H](Cc2ccc(OCC(=O)O)cc2)NC(=O)[C@H](Cc2ccc(OCC(=O)O)cc2)NC(=O)CSC[C@@H](C(=O)N[C@@H](CCN)C(=O)NCCCCCCCCCCCCCCC(=O)O)NC1=O [Example 2606] ({CH2CO}-Y(Carboxymethyl)Y(Carboxymethyl)D[Phe(3-CF3)][Phe(4-COOH)][Bip]Q[NMeA][dL][Dab][Cha][Val(3-OH)]K(Ac)C[Dab]-{NH(CH2)14COOH}; thioether N-14)  48.9 nM
3. CC(=O)NCCCC[C@@H]1NC(=O)[C@H](C(C)(C)O)NC(=O)[C@H](CC2CCCCC2)NC(=O)[C@H](CCN)NC(=O)[C@@H](CC(C)C)NC(=O)[C@H](C)N(C)C(=O)[C@H](CCCNC(N)=O)NC(=O)[C@H](Cc2ccc(-c3ccccc3)cc2)NC(=O)[C@H](Cc2ccc(OCC(=O)O)cc2)NC(=O)[C@H](Cc2cccc(C(F)(F)F)c2)NC(=O)[C@H](CC(=O)O)NC(=O)[C@H](Cc2ccc(OCC(=O)O)cc2)NC(=O)[C@H](Cc2ccc(OCC(=O)O)cc2)NC(=O)CSC[C@@H](C(=O)N[C@@H](CCN)C(=O)NCCCCCCCCCCCCCCC(=O)O)NC1=O [Example 2624] ({CH2CO}-Y(Carboxymethyl)Y(Carboxymethyl)D[Phe(3-CF3)]Y(Carboxymethyl)[Bip][Cit][NMeA][dL][Dab][Cha][Val(3-OH)]K(Ac)C[Dab]-{NH(CH2)14COOH}; thioether N-14)  77 nM
